Results taken from patent US8586619B2, “Agents of calcium ion channel modulators” (VM Therapeutics LLC, priority 2007, dated 2013).

Test system: Formalin induced pain in rat animal models of hyperalgesia
Experiment: Rat Formalin Paw Test (in vivo assay)
Details: flinches, shown in FIGS. 1 and 2
Method: Rat Formalin Paw Test (in Vivo Assay): Compounds were assessed for their ability to inhibit the behavioral response evoked by an injection of formalin (50 μl of 5% formalin). A metal band was affixed to the left hind paw of male Holtzman rats (225-250 g, Harlan Industries, Indianapolis Ind.) and each rat was conditioned to the band for 60 min within a plastic cylinder (15 cm diameter). Rats were dosed with either vehicle, positive control compound or a test compound either before (local) or after (systemic) formalin challenge. For local administration, compounds were prepared in either a 10:7.5 vehicle of saline (in mL) and (D)- or (L)-Tartaric acid (in mg), or a 1:1:6 vehicle of DMA (N,N-Dimethylacetamide), Tween 80 and saline, and injected […] into the dorsal surface of the right hind paw of the rat 60 min prior to formalin. The number of flinches was counted continuously for 60 min using an automated nociception analyzer (UCSD Anesthesiology Research, San Diego, Calif.). Statistical significance was determined by comparing the total flinches detected in the early (0-10 min, Phase I) and late (11-60 min) phase with an unpaired t-test. […]

Structure (SMILES)	reduction of Formalin induced pain
O=C(c1ccc(F)cc1)C1CCN(CCn2c(=O)[nH]c3ccccc3c2=O)CC1 [Compound 401, 3-{2-[4-(4-Fluoro-benzoyl)-piperidin-1-yl]-ethyl}-1H-quinazoline-2,4-dione]	reduction of Formalin induced pain
CC1CCCC(NC(=O)C2N(C(C)CCc3ccccc3)C(=O)C3C(C(=O)Nc4cc(Cl)cc(Cl)c4)C4C=CC32O4)C1C (centres unmarked) [Compound 52, 3-(1-Methyl-3-phenyl-propyl)-4-oxo-10-oxa-3-aza-tricyclo[5.2.1.0^1,5]dec-8-ene-2,6-dicarboxylic acid 2-[(3,5-dichloro-phenyl)-amide]6-[(2,3-dimethyl-cyclohexyl)-amide]]	reduction of Formalin induced pain
